# Measurements as given in patent publication US20230355566A1, “POTENTIATION OF HELMINTH TREATMENT” (Elanco Tiergesundheit AG, priority 2019, published 2023).
# Legend:
# [1] = tested on: liver flukes; conditions: cited from earlier work
# [2] = tested on: Fasciola hepatica (Sunny Corner isolate, Fashep-66), immature stage; assay: Efficacy and synergy against immature stage of Fasciola hepatica in experimentally infected sheep (Example 3); format: in vivo; conditions: closantel 3.75 mg/kg, combination 40 and 3.75 mg/kg; for % Efficacy using arithmetic mean / % Efficacy using geometric mean: single oral treatment day 42, diamphenethide 40 mg/kg, vs untreated control; for Fluke Count, arithmetic mean / Fluke Count, geometric mean: single oral treatment day 42 after infection, diamphenethide 40 mg/kg, live fluke in liver day 91
# Experimental: In the following examples, all animals were confirmed free of infection with F. hepatica and found clinically healthy by a veterinarian prior to enrollment in the study. Doses were administered orally from suitably sized disposable syringes. The fluke counts and body weights were log-transformed (after adding a constant of 1 to the fluke counts only) and the distribution of the transformed data checked to see if they satisfied the assumption of normal distribution. Differences between treatment groups were analyzed by analysis of variance methods (ANOVA), as the assumptions of normal distribution were satisfied for log-transformed fluke count and log-transformed bodyweight, as well as for (untransformed) fluke measurements. Arithmetic […]), geometric […]), median and ranges were summarized for fluke counts, fluke measurements and bodyweight. A constant of one was applied for calculation of geometric means of fluke counts. The percentage efficacy for each treated group was calculated as follows: […] where FCC is the arithmetic mean fluke count of the control group and FCT is the arithmetic mean fluke count of the treated group. […] Note that expected synergy is defined as: […] Administered Concurrently with Closantel Against the Immature Stage of Fasciola hepatica Infections in Sheep This study was to assess the efficacy of […] (40 mg/kg) given concurrently with closantel (3.75 mg/kg), […] alone (40 mg/kg), and closantel alone (3.75 mg/kg) against F. hepatica in sheep (3-4 month Merino lambs) with treatment on day 42. This was a controlled, blinded, randomized study. On day 0, the sheep were experimentally infected with a single isolate of approximately 200 Sunny Corner ([…]-66) isolate F. hepatica metacercariae. The required number of […] up in carboxymethyl cellulose. Syringes were checked post-infection for retained […]. The infection was administered orally and each infective dose was followed by water administered orally. The sheep were randomized into treatment groups on the basis of day 41 body weight and allocated to groups as denoted in Table 3.1. Body weight was determined one day prior to treatment. All treatments were measured by volume and rounded to the nearest 0.1 mL. On day 42, and before feeding, the individual animals were treated once only with the treatment in Table 3.1. Once the animals had been treated they were returned to their pens and fed within one hour. Untreated control animals were also fed at this time. The liver with gall bladder and bile ducts intact were recovered from each animal on day 91 and processed for F. hepatica counts. The assessment of efficacy was based on the number of live fluke removed from the liver.
# [3] = deacylation to DAMD; cited from earlier work
# [4] = tested on: Fasciola hepatica (Oberon isolate, Fashep-65), early immature stage; assay: Efficacy against early immature stage of Fasciola hepatica in experimentally infected sheep (Example 2); format: in vivo; conditions: closantel 10 mg/kg, combination 60 and 10 mg/kg
# Experimental: In the following examples, all animals were confirmed free of infection with F. hepatica and found clinically healthy by a veterinarian prior to enrollment in the study. Doses were administered orally from suitably sized disposable syringes.
# The fluke counts and body weights were log-transformed (after adding a constant of 1 to the fluke counts only) and the distribution of the transformed data checked to see if they satisfied the assumption of normal distribution. Differences between treatment groups were analyzed by analysis of variance methods (ANOVA), as the assumptions of normal distribution were satisfied for log-transformed fluke count and log-transformed bodyweight, as well as for (untransformed) fluke measurements.
# Arithmetic means (Amean), geometric means (Gmean), median and ranges were summarized for fluke counts, fluke measurements and bodyweight. A constant of one was applied for calculation of geometric means of fluke counts.
# The percentage efficacy for each treated group was calculated as follows:
# % Efficacy=100×(FCC−FCT)/FCC
# where FCC is the arithmetic mean fluke count of the control group and FCT is the arithmetic mean fluke count of the treated group. The formula was also applied using mean geometric fluke counts; these were calculated using log transformed data with 1 added as a constant to each fluke count and then subtracted following transformation.
# Efficacy of Diamphenethide in Combination with Closantel in Oral Formulations Against the Early Immature Stage of Fasciola hepatica in Sheep
# This study was to assess the efficacy of diamphenethide (60 mg/kg) given concurrently with closantel (10 mg/kg), diamphenethide alone (60 mg/kg), and closantel alone (10 mg/kg) against F. hepatica in sheep with treatment on day 14. This was a controlled, blinded, randomized study using […] Merino lambs.
# On day 0, the sheep were experimentally infected with a target of 87 Oberon isolate (Fashep-65) F. hepatica metacercariae. The required number of metacercariae were prepared for infection in a water and 4% carboxymethylcellulose solution. Each infective dose was followed by water administered orally.
# The sheep were randomized into treatment groups on the basis of day 11 body weight and allocated to groups as denoted in Table 2.1.
# Body weight was determined on day 11 and doses were measured by volume and rounded to the nearest 0.1 mL. On day 14, and before feeding, the individual animals were treated once only with the Treatment in Table 2.1. Once the animals had been treated they were returned to their pens and fed within one hour. Untreated control animals were also fed at this time.
# The liver with gall bladder and common bile duct intact were recovered on day 91 or 92 from each animal and processed for F. hepatica counts. […]
# [5] = single oral treatment day 14, diamphenethide 60 mg/kg, vs untreated control
# [6] = single oral treatment day 14 after infection, diamphenethide 60 mg/kg, live fluke in liver day 91 or 92
Compound,Activity against early immature flukes ([1]; flukes up to 6 weeks of age),Activity against flukes as they develop to maturity ([1]; maturing flukes),% Efficacy using arithmetic mean [2],% Efficacy using geometric mean [2],"Fluke Count, arithmetic mean [2]","Fluke Count, geometric mean [2]",Metabolism [3],"% Efficacy using arithmetic mean [4, 5]","% Efficacy using geometric mean [4, 5]","Fluke Count, arithmetic mean [4, 6]","Fluke Count, geometric mean [4, 6]"
"CC(=O)Nc1ccc(OCCOCCOc2ccc(NC(C)=O)cc2)cc1 [Diamphenethide, N-[4-[2-[2-(4-acetamidophenoxy)ethoxy]ethoxy]phenyl]acetamide]",highly effective,progressively lower activity,36.1%,41.5%,57.6,50.9,rapidly metabolized by deacylation,98.3%,98.4%,0.3,0.3
"Cc1cc(C(C#N)c2ccc(Cl)cc2)c(Cl)cc1NC(=O)c1cc(I)cc(I)c1O (stereo not drawn) [Closantel, N-[5-chloro-4-[(4-chlorophenyl)cyanomethyl]-2-methylphenyl]-2-hydroxy-3,5-diiodobenzamide]",–,–,40.1%,40.7%,54.0,51.6,–,–,–,–,–
